From US20140148446A1, “COMPOUNDS THAT ENABLE ALTERNATIVE MITOCHONDRIAL ELECTRON TRANSFER” (University of North Texas Health Science Center, priority 2010, published 2014)

How the values were obtained:
HT-22 cells = assay: Protection against ROS production induced by glutamate in HT-22 cells; assay type: cell-based; details: Mus musculus
mitochondrial complex II = biological target: T1, mitochondrial complex II (Rattus norvegicus, UniProt P21913+Q641Z9+Q6PCT8+Q920L2); assay: Mitochondrial complex II activity assay; assay type: biochemical; details: data not shown
T1 construct: the mitochondrial fraction was isolated by differential centrifugation; from tissue; host or cells: rat heart mitochondria
T1 sequence (Q920L2 35-656): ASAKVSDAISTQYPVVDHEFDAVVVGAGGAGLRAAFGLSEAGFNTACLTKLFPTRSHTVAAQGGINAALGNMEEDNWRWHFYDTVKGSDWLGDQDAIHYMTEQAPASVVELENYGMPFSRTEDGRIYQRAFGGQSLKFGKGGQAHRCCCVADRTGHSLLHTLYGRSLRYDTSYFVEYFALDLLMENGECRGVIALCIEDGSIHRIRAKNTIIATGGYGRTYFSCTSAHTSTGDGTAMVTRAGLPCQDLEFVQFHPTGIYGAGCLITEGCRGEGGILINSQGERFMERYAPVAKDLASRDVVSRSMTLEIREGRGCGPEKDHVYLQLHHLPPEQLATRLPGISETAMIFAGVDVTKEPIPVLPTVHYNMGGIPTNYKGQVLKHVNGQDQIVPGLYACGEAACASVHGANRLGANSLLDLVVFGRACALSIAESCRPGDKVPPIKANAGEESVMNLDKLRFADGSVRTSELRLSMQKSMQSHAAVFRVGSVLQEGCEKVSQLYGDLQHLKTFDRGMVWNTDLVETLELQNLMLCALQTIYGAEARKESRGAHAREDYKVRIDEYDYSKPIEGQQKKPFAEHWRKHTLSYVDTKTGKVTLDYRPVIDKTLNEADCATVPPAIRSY
T1 sequence (P21913 31-282): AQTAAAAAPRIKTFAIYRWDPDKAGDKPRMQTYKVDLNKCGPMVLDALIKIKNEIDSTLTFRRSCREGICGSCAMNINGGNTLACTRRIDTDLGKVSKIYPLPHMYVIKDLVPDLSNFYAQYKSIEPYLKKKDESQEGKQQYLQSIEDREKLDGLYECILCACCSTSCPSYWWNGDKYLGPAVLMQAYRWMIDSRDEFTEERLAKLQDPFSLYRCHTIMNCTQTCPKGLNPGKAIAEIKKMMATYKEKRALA
T1 sequence (Q641Z9 1-169): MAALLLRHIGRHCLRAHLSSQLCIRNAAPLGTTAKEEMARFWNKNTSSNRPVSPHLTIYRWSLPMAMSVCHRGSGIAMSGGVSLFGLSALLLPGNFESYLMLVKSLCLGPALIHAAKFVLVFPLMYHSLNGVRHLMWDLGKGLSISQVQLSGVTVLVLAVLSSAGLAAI
T1 sequence (Q6PCT8 57-159): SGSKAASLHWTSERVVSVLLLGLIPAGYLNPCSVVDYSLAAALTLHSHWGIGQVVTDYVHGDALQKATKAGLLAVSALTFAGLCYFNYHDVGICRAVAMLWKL
Procedure: (§1) Fresh rat heart was removed and placed in ice-cold mitochondrial isolation buffer containing 210 mM mannitol, 70 mM sucrose, 5 mM HEPES, and 1 mM EDTA, pH 7. The heart was homogenized immediately, and the mitochondrial fraction was isolated by differential centrifugation as described previously (Trounce et al., 1996). Mitochondria were stored at −80° C. until subsequent analysis.
(§2) All mitochondrial activity assays were performed according to previous publications with minimal modifications for complex I (Lenaz et al., 2004), complex I-III, complex II, complex III, and II-III (Trounce et al., 1996). […] Complex I activity was monitored by adding NADH to the mix with or without rotenone/antimycin A. The final data were normalized to blank values at time zero. The reaction was monitored in a kinetic spectrophotometer at 340 nm. Complex I activity was measured in arbitrary units and normalized to control levels for statistical analysis. Isolated mitochondria equivalent to 40-200 μg mitochondrial protein was used for each assay, except for assays with inhibitors, when larger amount of mitochondria (3 to 5 folds) were used to ensure that inhibition was distinguishable. Final data were normalized to control levels. For complex I-III activity, the reaction was initiated with the addition of NADH, cyt c was used as final substrate and its reduction was monitored at 550 nm. […]

[1] = test system: mitochondrial complex II-III; assay: Mitochondrial complex II-III activity in extracted mitochondria; assay type: biochemical, rat; details: with and without antimycin A
Procedure: as §1, §2

mitochondrial complex I = assay: Mitochondrial complex I activity assay (NADH dehydrogenase); assay type: biochemical, rat; details: in place of CoQ1
Procedure: as §1
All mitochondrial activity assays were performed according to previous publications with minimal modifications for complex I (Lenaz et al., 2004), complex I-III, complex II, complex III, and II-III (Trounce et al., 1996). […] Complex I activity was monitored by adding NADH to the mix with or without rotenone/antimycin A. The final data were normalized to blank values at time zero. The reaction was monitored in a kinetic spectrophotometer at 340 nm. Complex I activity was measured in arbitrary units and normalized to control levels for statistical analysis. Isolated mitochondria equivalent to 40-200 μg mitochondrial protein was used for each assay, except for assays with inhibitors, when larger amount of mitochondria (3 to 5 folds) were used to ensure that inhibition was distinguishable. Final data were normalized to control levels. For complex I-III activity, the reaction was initiated with the addition of NADH, cyt c was used as final substrate and its reduction was monitored at 550 nm. For assay of complex II-III activity, succinate was added instead of NADH, and the electron transfer to cyt c was performed according to previous publications (Atamna et al., 2008). To test whether the electrons from the reduced form of MB (MBH2) can be transferred to cyt c in mitochondrial lysate, we added 10 μM 2,7-dichlorofluorescin (DCFH, Invitrogen, Carlsbad, Calif.) to the reaction system. Free radicals convert non-fluorescent DCFH to highly fluorescent DCF (Ex, 488 nm, and Em, 530 nm). In the presence of cyt c, which accepts electrons from MBH2, conversion of DCFH to DCF is decreased.

Question: Which results are given for `CN(C)c1ccc2nc3ccc(=[N+](C)C)cc-3sc2c1` [methylene blue]?
Answer: EC50 (HT-22 cells): 20.4 nM; Effect on complex II activity alone (mitochondrial complex II): no significant effect; Effect on complex II-III activity [1]: no significant effects; Substrate of NADH dehydrogenase in complex I (accepts electrons from NADH) (mitochondrial complex I): can completely replace CoQ1 as a direct substrate
